One assay relates to NRLP3 pathway. In words: Testing of the NRLP3 pathway: KRAS peptide recognition by TIL expanded with or without MCC950. Format: cell-based, human. To be noted: TIL expanded with cardiolipin in presence of MCC950 (10 uM/mL). On the procedure: The number of peptide targets recognized as well as the amount of IFN-γ in pg/10e^4 TIL/target/7 days was analyzed and compared in the cardiolipin-positive versus negative group testing with Human IFN-γ ELISA basic kit (HRP).
Since cardiolipin has been reported to activate the NRLP3 inflammasome, aliquots of these same TIL preparation were expanded and the absence or presence of the NRLP3 inhibitor (MCC950) was investigated.

For assay [1], the system named is TIL. Put plainly: Peptide recognition assay in TIL (IFN-γ ELISA / IL-17 in supernatant, 7 days). Format: cell-based, human. Here is the method:
Peptides from tumor-associated antigens (TAAs), listed in Table 5 were placed at 1 ug/well in duplicates using anti-CD3 at 30 ng/mL as well as PHA at 5 μg/mL as positive controls.
The differences in TIL versus PBMCs can also be defined by peptide reactivity. 10e^4 TIL or 10e^4 PBMC/well were co-cultured with the peptides listed in Table 11 below for 7 days and the supernatants were tested for IFN-γ production.

The test system of assay [2] is human IgG in serum from patients with pancreatic cancer. In words: ELISA of serum IgG binding to MUC4 epitope PVTSLSSVSTGDTTP (OD 405 nm). The settings on record: sera from patient S1 and S15, dilutions 1:2 and 1:10. An excerpt:
The MUC4 peptide is targeted by human IgG in serum from patients with cancer. […] The epitope PVTSLSSVSTGDTTP was linked to an ELISA plate via a streptavidin-biotin scaffold and tested for IgG recognition in serum from different patients with pancreatic cancer. The optical density (OD) read at 405 nm wavelength was used to detect IgG binding in sera from patients showing that some individuals have a higher IgG concentration to this epitope as compared to other patients, some patients have no IgG reactivity at all showing that there is individual IgG reactivity to this distinct MUC4 epitopes. The anti-human IgG directed antibody A2064 clone GG-5 from Sigma-Aldrich coupled to Alkaline-Phosphatase was used to detect epitope reactivity. The assay layout and reactivity reading are shown in Tables 12 and 13 (layouts and ODs, respectively) below.
Sera from different patients with PDAC (labeled as S1-S15) were incubated with the target epitope at different dilutions in phosphate-buffered saline (PBS) (1:2 and 1:10) and reactivity was tested based on the OD reading.
(ELISA stands for enzyme-linked immunosorbent assay.)

Another assay relates to PBMCs. Put plainly: Percentage of γδ T-cells in healthy individuals PBMCs expanded in presence or absence of cardiolipin. The assay is classed as cell-based, human. Here is the method: PBMCs of healthy individuals expanded in the presence of cardiolipin without interleukins increased the frequency of γδ T-cells (Table 4).
(§1) TIL and PBMCs were analyzed using several DuraClone (Beckman Coulter) Panels, always with addition of the LIVE/DEAD™ Fixable Yellow Dead Cell Stain Kit: DuraClone IM T-cell Subsets tube adding LAG-3 BV650 and CD95 BV785 and Duraclone IM TCRs tube. Besides, another panel with commercially available antibodies were used, which included CD4 Pacific Blue, CD8 KromeOrange, CXCR3 BV650, CD95 BV785, CD103 FITC, CCR7 PE, CCR4 PE/Dazzle, TCR pan-γ/δ PC5.5, CCR6 PC-7, CCR9 Alexa Fluor 647, CD45RA AF700, CD3 APC-A750 and LIVE/DEAD™ Fixable Yellow Dead Cell Stain Kit. After 15 minutes incubation, T-cells and PBMCs were washed in PBS-2% FBS and acquired using a CytoFlex LX flow cytometer from Beckman Coulter. Analysis was performed using FlowJo software.

Assay [3] relates to TIL. In words: IFN-γ induction assay / cytokine production of TIL after anti-CD3 crosslinking, 24 h, 10e5 cells. The assay is classed as cell-based, human. The settings on record: TIL with or without cardiolipin. On the procedure:
In table 3, TIL were seated in at 10e^5 cells/well in triplicates in medium containing IL-2/IL-7/IL-15+cardiolipin (medium) or in IL-2/IL-7/IL-15+cardiolipin plus anti-CD3-IgG1 at 30 ng/mL to crosslink the T-cell receptor.
Supernatants were harvested after 24 hours in order to test for maximal T-cell activation defined in 24 hrs./10e^5 cells for comparison. The delta between maximal stimulation (b) and constitutive cytokine production (A) is summarized in row “delta (B-A)”.
This assay is used to measure the IFN-γ production after anti-CD3 induced activation during 24 h in 10^5 cells.

The subject of assay [4] is PBMCs from healthy individuals. Put plainly: Cardiolipin titration: IFN-γ and IL-17A production in PBMCs and whole blood. The assay is classed as cell-based, human. The settings on record: 250 nM cardiolipin, PBMCs from healthy individuals stimulated with OKT3 (30 ng/mL).
Assay [5] deals with TIL. Put plainly: Flow cytometric analysis of TIL and PBMC phenotype. Format: cell-based, human. Here is the method: Different phenotypes in TIL were observed, when using different tumor regions in the three-expansion step herein proposed.
γδ T-cells were negatively sorted using a commercial kit from Stem Cell. Purity of negatively sorted cells was tested by flow cytometry using the DURAclone panel IM TCRs.
as §1
For orientation: In flow cytometry, cells or beads pass a laser one at a time.

In assay [6] the test system is TIL. In words: Treg detection assay. To be noted: TIL with or without cardiolipin. Format: cell-based, human. On the procedure: Briefly, cells were stained extracellularly with CD3 PE (clone UCHT-1, BD 555749), CD4 V450 (clone RPA-T4, BD 561838), CD8 APC-Cy7 (clone SK1, BD 557834), CD25 PE-Cy7 (clone 2A3, BD 335824), CD127 APC (clone R34.34, Beckman Coulter B42026) for 15 minutes in ice and then washed and permeabilized using Biolegend's True-Nuclear Transcription Factor Buffer Set according to manufacturer's instructions.
Cells were then stained intracellularly with FOXP3 Alexa488 antibody (clone 259D/C7, BD 560047) or an IgG1 isotype control Alexa 488 (BD 557702), and CD3 PE (clone UCHT-1, BD 555749). Tregs cells were identified by flow cytometry as CD3^+ CD4^+ CD25^high CD127^−FoxP3^+).

Assay [7] deals with TIL. In words: CD107a assay. To be noted: TIL with or without cardiolipin. The assay is classed as cell-based, human. On the procedure:
Briefly, positive control cells were stimulated with 1 μg/mL of PMA; non-stimulated cells served as the control and data were performed in triplicates. Both stimulated and non-stimulated cells were incubated with a protein transport inhibitor containing monensin (BD, 51-2092kz) and CD107a PE antibody (clone H4A3, BD 555801) for 2 hours. Then an extracellular staining was performed using CD3 PE-Cy7 (clone UCHT1, BD 563423), CD4 V450 (clone RPA-T4, BD 561838) and CD8 APC-Cy7 (clone SK1, BD 557834). Control cells are PBMCs that had been cultured for 48-72 hours in the presence of 300 IU/mL IL-2 and 50 IU/mL IL-15. The assay is considered as positive if the positive control cells (PMA stimulated) have at least 2× the SD of the triplicates of the negative control.

The test system of assay [8] is TIL. In words: RNA sequencing, differential gene expression in TIL grown with and without cardiolipin. To be noted: TIL expanded with vs without cardiolipin, DESeq2 FDR <0.10. Format: cell-based, human. On the procedure:
RNA from TIL was isolated using the commercially available RNeasy Mini Kit (Qiagen) and sequencing was done using the Illumina NovaSeq 6000 system with 100 bp paired end read lengths. Adapters were removed.
Transcriptome sequencing data alignment was performed using STAR two-pass method to human genome build hg19. Duplicates were marked using the Picard's MarkDuplicates tool and reads were split using the GATK SplitNCigarReads tool and variants were called using Varscan2. STAR-Fusion was used to identify candidate fusion transcripts and its output was annotated using AGFusion.
RNA sequencing was performed in seven of TIL expansions (i.e. from seven individual patients) with or without cardiolipin and tested for differential gene expression (FIG. 15). Genes with extremely low counts across samples were removed because they provide little evidence for differential expression and may interfere with some of the statistical approximations used.

Results on three compounds are retold here after US20250314636A1, “METHOD OF PREPARING AND EXPANDING A POPULATION OF IMMUNE CELLS FOR CANCER THERAPY, POTENCY ASSAY FOR TUMOR RECOGNITION, BIOLOGICAL VACCINE PREPARATION AND EPITOPETARGET FOR ANTIBODIES” (FUNDAÇÃO D. ANNA DE SOMMER CHAMPALIMAUD E DR. CARLOS MONTEZ …, priority 2022, published 2025).

Where “and” joins values, the source holds several entries; their conditions need not be identical. Equal entries are not always repeated. Entries after “also recorded” stand apart in the source; their conditions may differ.

On to `CC(C)(O)c1coc(S(=O)(=O)NC(=O)Nc2c3c(cc4c2CCC4)CCC3)c1` [MCC950], for which the “tumor associated antigen (KRAS epitope) recognition in TIL” value with NRLP3 pathway is reported as “statistically reduces the function of cardiolipin; also recorded: reduces the tumor associated antigen recognition in TIL”.
Turning to PVTSLSSVSTGDTTP [MUC4-P3 [Mut][WT]], in the assay with TIL [1] (Pancreatic TIL D1599), the “Pancreatic TIL D1599 IFN-y” value is 0 pg/mL and the “Pancreatic TILD1599 IL 17” value came out at 2 pg/mL. Also, the “IgG binding reactivity to the nominal MUC4 epitope” value in [2] is “strong IgG binding reactivity”.
For cardiolipin, the “frequency of γδ T-cells” value in the assay on PBMCs (PBMCs of healthy individuals expanded with cardiolipin without interleukins) is on record as “increased”. Moreover, in the assay with PBMCs (healthy individuals PBMCs, presence of cardiolipin, without interleukins, single donors, listed as CL), the “Percentage of γδ T-cells, w/CL” value is 10.5% and 9.32% and 26% and 10.9% and 22.9%. The “Percentage of γδ T-cells, w/CL, Average” value in the assay with PBMCs (healthy individuals PBMCs, presence of cardiolipin, average of donors) is given as 15.92%. The “recognition of commonly shared tumor-associated antigens (KRAS, mesothelin) by TIL, IFN-γ production” value in the assay on TIL [1] (TIL expanded in cardiolipin) was “recognized a high number of KRAS as well as mesothelin targets”. Moreover, in the assay on TIL [3], the “IFN-γ production in TIL” value was “no differences” and the “IL-17 production in TIL” value is “no differences”. Moreover, the “production of IFN-γ” value in assay [4] is reported as “favorable production of IFN-γ”. In the assay on TIL [5] (CD4+, CD8+, double-positive, double-negative or γδ+ TIL, with vs without cardiolipin), the “T-cell maturation, activation, or exhaustion markers” value is “not observed”. The “frequency of γδ TIL” value in the assay with TIL [5] (TIL expanded with IL-7, IL-15, IL-21 with vs without cardiolipin) was “increased”. In addition, the “regulatory T-cells (Treg) in TIL” value with TIL [6] is recorded as “no differences”. In addition, the “CD107 induction in TIL” value with TIL [7] is reported as “no differences”. Besides, in the assay on TIL [8], the CXCL9 gene expression result is reported as “over-expressed”, the CXCL10 gene expression result is listed as “over-expressed” and the KBTBD11 gene expression entry is recorded as “statistically reduced”.
